Assay results taken from patent publication US12049450B2, “Pyridyloxy-carboxylate derivative and preparation method therefor, herbicidal composition, and use” (Qingdao Kingagroot Chemical Compound Co., Ltd., priority 2018, dated 2024).

Tests used:
Assay in all cases: Post-emergence test experiment (greenhouse pot, spray at 2-3 leaf stage)
Format in all cases: in vivo
Conditions in all cases: 1000 g/ha; post-emergence spray at 2-3 leaf stage; assessed after 3 weeks; fresh weight inhibition rate
Abutilon theophrasti = test system: Abutilon theophrasti
In short: (§1)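 Activity graded levels 0-5 by fresh-weight inhibition (level 5 above 85%, level 0 below 5%), assessed 3 weeks after treatment. Plants grown in greenhouse pots were sprayed post-emergence at 2-3 leaves using acetone/tween-80 solutions with methyl oleate synergist (1.5 L/ha).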

Digitaria sanguinalis = test system: Digitaria sanguinalis
In short: as §1

Echinochloa crusgalli = test system: Echinochloa crusgalli
In short: as §1

Galium spurium = test system: Galium spurium
In short: as §1

Monochoria vaginalis = test system: Monochoria vaginalis
In short: as §1

CC(Oc1nc(F)c(Cl)c(N)c1Cl)C(=O)OCCc1nnco1 (stereo not shown) [Compound 148]
Activity level (growth inhibition rate) Abutilon theophrasti (Abutilon theophrasti): 5 (Level 5: the growth inhibition rate is greater than 85%)
Activity level (growth inhibition rate) Digitaria sanguinalis (Digitaria sanguinalis): 5 (Level 5: the growth inhibition rate is greater than 85%)
Activity level (growth inhibition rate) Echinochloa crusgalli (Echinochloa crusgalli): 5 (Level 5: the growth inhibition rate is greater than 85%)
Activity level (growth inhibition rate) Galium spurium (Galium spurium): 5 (Level 5: the growth inhibition rate is greater than 85%)
Activity level (growth inhibition rate) Monochoria Vaginalis (Monochoria vaginalis): 5 (Level 5: the growth inhibition rate is greater than 85%)

CC(Oc1nc(F)c(Cl)c(N)c1Cl)C(=O)SCc1nnco1 (stereo not shown) [Compound 149]
Activity level (growth inhibition rate) Abutilon theophrasti (Abutilon theophrasti): 5 (Level 5: the growth inhibition rate is greater than 85%)
Activity level (growth inhibition rate) Digitaria sanguinalis (Digitaria sanguinalis): 5 (Level 5: the growth inhibition rate is greater than 85%)
Activity level (growth inhibition rate) Echinochloa crusgalli (Echinochloa crusgalli): 5 (Level 5: the growth inhibition rate is greater than 85%)
Activity level (growth inhibition rate) Galium spurium (Galium spurium): 5 (Level 5: the growth inhibition rate is greater than 85%)
Activity level (growth inhibition rate) Monochoria Vaginalis (Monochoria vaginalis): 5 (Level 5: the growth inhibition rate is greater than 85%)

CC(Oc1nc(F)c(Cl)c(N)c1Cl)C(=O)SC(C)c1ncon1 (stereo not shown) [Compound 150]
Activity level (growth inhibition rate) Abutilon theophrasti (Abutilon theophrasti): 5 (Level 5: the growth inhibition rate is greater than 85%)
Activity level (growth inhibition rate) Digitaria sanguinalis (Digitaria sanguinalis): 5 (Level 5: the growth inhibition rate is greater than 85%)
Activity level (growth inhibition rate) Echinochloa crusgalli (Echinochloa crusgalli): 5 (Level 5: the growth inhibition rate is greater than 85%)
Activity level (growth inhibition rate) Galium spurium (Galium spurium): 5 (Level 5: the growth inhibition rate is greater than 85%)
Activity level (growth inhibition rate) Monochoria Vaginalis (Monochoria vaginalis): 5 (Level 5: the growth inhibition rate is greater than 85%)

CC(Oc1nc(F)c(Cl)c(N)c1Cl)C(=O)OCc1ncno1 (stereo not shown) [Compound 151]
Activity level (growth inhibition rate) Abutilon theophrasti (Abutilon theophrasti): 5 (Level 5: the growth inhibition rate is greater than 85%)
Activity level (growth inhibition rate) Digitaria sanguinalis (Digitaria sanguinalis): 5 (Level 5: the growth inhibition rate is greater than 85%)
Activity level (growth inhibition rate) Echinochloa crusgalli (Echinochloa crusgalli): 5 (Level 5: the growth inhibition rate is greater than 85%)
Activity level (growth inhibition rate) Galium spurium (Galium spurium): 5 (Level 5: the growth inhibition rate is greater than 85%)
Activity level (growth inhibition rate) Monochoria Vaginalis (Monochoria vaginalis): 5 (Level 5: the growth inhibition rate is greater than 85%)

CC(Oc1nc(F)c(Cl)c(N)c1Cl)C(=O)SCCc1cnno1 (stereo not shown) [Compound 152]
Activity level (growth inhibition rate) Abutilon theophrasti (Abutilon theophrasti): 5 (Level 5: the growth inhibition rate is greater than 85%)
Activity level (growth inhibition rate) Digitaria sanguinalis (Digitaria sanguinalis): 5 (Level 5: the growth inhibition rate is greater than 85%)
Activity level (growth inhibition rate) Echinochloa crusgalli (Echinochloa crusgalli): 5 (Level 5: the growth inhibition rate is greater than 85%)
Activity level (growth inhibition rate) Galium spurium (Galium spurium): 5 (Level 5: the growth inhibition rate is greater than 85%)
Activity level (growth inhibition rate) Monochoria Vaginalis (Monochoria vaginalis): 5 (Level 5: the growth inhibition rate is greater than 85%)

CC(Oc1nc(F)c(Cl)c(N)c1Cl)C(=O)OCc1conn1 (stereo not shown) [Compound 153]
Activity level (growth inhibition rate) Abutilon theophrasti (Abutilon theophrasti): 5 (Level 5: the growth inhibition rate is greater than 85%)
Activity level (growth inhibition rate) Digitaria sanguinalis (Digitaria sanguinalis): 5 (Level 5: the growth inhibition rate is greater than 85%)
Activity level (growth inhibition rate) Echinochloa crusgalli (Echinochloa crusgalli): 5 (Level 5: the growth inhibition rate is greater than 85%)
Activity level (growth inhibition rate) Galium spurium (Galium spurium): 5 (Level 5: the growth inhibition rate is greater than 85%)
Activity level (growth inhibition rate) Monochoria Vaginalis (Monochoria vaginalis): 5 (Level 5: the growth inhibition rate is greater than 85%)

CC(Oc1nc(F)c(Cl)c(N)c1Cl)C(=O)SCc1cccs1 (stereo not shown) [Compound 154]
Activity level (growth inhibition rate) Abutilon theophrasti (Abutilon theophrasti): 5 (Level 5: the growth inhibition rate is greater than 85%)
Activity level (growth inhibition rate) Digitaria sanguinalis (Digitaria sanguinalis): 5 (Level 5: the growth inhibition rate is greater than 85%)
Activity level (growth inhibition rate) Echinochloa crusgalli (Echinochloa crusgalli): 5 (Level 5: the growth inhibition rate is greater than 85%)
Activity level (growth inhibition rate) Galium spurium (Galium spurium): 5 (Level 5: the growth inhibition rate is greater than 85%)
Activity level (growth inhibition rate) Monochoria Vaginalis (Monochoria vaginalis): 5 (Level 5: the growth inhibition rate is greater than 85%)

Cc1sc(C)c(COC(=O)C(C)Oc2nc(F)c(Cl)c(N)c2Cl)c1C (stereo not shown) [Compound 155]
Activity level (growth inhibition rate) Abutilon theophrasti (Abutilon theophrasti): 5 (Level 5: the growth inhibition rate is greater than 85%)
Activity level (growth inhibition rate) Digitaria sanguinalis (Digitaria sanguinalis): 5 (Level 5: the growth inhibition rate is greater than 85%)
Activity level (growth inhibition rate) Echinochloa crusgalli (Echinochloa crusgalli): 5 (Level 5: the growth inhibition rate is greater than 85%)
Activity level (growth inhibition rate) Galium spurium (Galium spurium): 5 (Level 5: the growth inhibition rate is greater than 85%)
Activity level (growth inhibition rate) Monochoria Vaginalis (Monochoria vaginalis): 5 (Level 5: the growth inhibition rate is greater than 85%)

CC(Oc1nc(F)c(Cl)c(N)c1Cl)C(=O)SCc1nccs1 (stereo not shown) [Compound 156]
Activity level (growth inhibition rate) Abutilon theophrasti (Abutilon theophrasti): 5 (Level 5: the growth inhibition rate is greater than 85%)
Activity level (growth inhibition rate) Digitaria sanguinalis (Digitaria sanguinalis): 5 (Level 5: the growth inhibition rate is greater than 85%)
Activity level (growth inhibition rate) Echinochloa crusgalli (Echinochloa crusgalli): 5 (Level 5: the growth inhibition rate is greater than 85%)
Activity level (growth inhibition rate) Galium spurium (Galium spurium): 5 (Level 5: the growth inhibition rate is greater than 85%)
Activity level (growth inhibition rate) Monochoria Vaginalis (Monochoria vaginalis): 5 (Level 5: the growth inhibition rate is greater than 85%)

Cc1ncc(COC(=O)C(C)Oc2nc(F)c(Cl)c(N)c2Cl)s1 (stereo not shown) [Compound 157]
Activity level (growth inhibition rate) Abutilon theophrasti (Abutilon theophrasti): 5 (Level 5: the growth inhibition rate is greater than 85%)
Activity level (growth inhibition rate) Digitaria sanguinalis (Digitaria sanguinalis): 5 (Level 5: the growth inhibition rate is greater than 85%)
Activity level (growth inhibition rate) Echinochloa crusgalli (Echinochloa crusgalli): 5 (Level 5: the growth inhibition rate is greater than 85%)
Activity level (growth inhibition rate) Galium spurium (Galium spurium): 5 (Level 5: the growth inhibition rate is greater than 85%)
Activity level (growth inhibition rate) Monochoria Vaginalis (Monochoria vaginalis): 5 (Level 5: the growth inhibition rate is greater than 85%)

CC(Oc1nc(F)c(Cl)c(N)c1Cl)C(=O)OCc1cscn1 (stereo not shown) [Compound 158]
Activity level (growth inhibition rate) Abutilon theophrasti (Abutilon theophrasti): 5 (Level 5: the growth inhibition rate is greater than 85%)
Activity level (growth inhibition rate) Digitaria sanguinalis (Digitaria sanguinalis): 5 (Level 5: the growth inhibition rate is greater than 85%)
Activity level (growth inhibition rate) Echinochloa crusgalli (Echinochloa crusgalli): 5 (Level 5: the growth inhibition rate is greater than 85%)
Activity level (growth inhibition rate) Galium spurium (Galium spurium): 5 (Level 5: the growth inhibition rate is greater than 85%)
Activity level (growth inhibition rate) Monochoria Vaginalis (Monochoria vaginalis): 5 (Level 5: the growth inhibition rate is greater than 85%)

CC(Oc1nc(F)c(Cl)c(N)c1Cl)C(=O)SCc1cncs1 (stereo not shown) [Compound 159]
Activity level (growth inhibition rate) Abutilon theophrasti (Abutilon theophrasti): 5 (Level 5: the growth inhibition rate is greater than 85%)
Activity level (growth inhibition rate) Digitaria sanguinalis (Digitaria sanguinalis): 5 (Level 5: the growth inhibition rate is greater than 85%)
Activity level (growth inhibition rate) Echinochloa crusgalli (Echinochloa crusgalli): 5 (Level 5: the growth inhibition rate is greater than 85%)
Activity level (growth inhibition rate) Galium spurium (Galium spurium): 5 (Level 5: the growth inhibition rate is greater than 85%)
Activity level (growth inhibition rate) Monochoria Vaginalis (Monochoria vaginalis): 5 (Level 5: the growth inhibition rate is greater than 85%)

CC(Oc1nc(F)c(Cl)c(N)c1Cl)C(=O)OCc1ccns1 (stereo not shown) [Compound 160]
Activity level (growth inhibition rate) Abutilon theophrasti (Abutilon theophrasti): 5 (Level 5: the growth inhibition rate is greater than 85%)
Activity level (growth inhibition rate) Digitaria sanguinalis (Digitaria sanguinalis): 5 (Level 5: the growth inhibition rate is greater than 85%)
Activity level (growth inhibition rate) Echinochloa crusgalli (Echinochloa crusgalli): 5 (Level 5: the growth inhibition rate is greater than 85%)
Activity level (growth inhibition rate) Galium spurium (Galium spurium): 5 (Level 5: the growth inhibition rate is greater than 85%)
Activity level (growth inhibition rate) Monochoria Vaginalis (Monochoria vaginalis): 5 (Level 5: the growth inhibition rate is greater than 85%)

CC(Oc1nc(F)c(Cl)c(N)c1Cl)C(=O)SCc1ccsn1 (stereo not shown) [Compound 161]
Activity level (growth inhibition rate) Abutilon theophrasti (Abutilon theophrasti): 5 (Level 5: the growth inhibition rate is greater than 85%)
Activity level (growth inhibition rate) Digitaria sanguinalis (Digitaria sanguinalis): 5 (Level 5: the growth inhibition rate is greater than 85%)
Activity level (growth inhibition rate) Echinochloa crusgalli (Echinochloa crusgalli): 5 (Level 5: the growth inhibition rate is greater than 85%)
Activity level (growth inhibition rate) Galium spurium (Galium spurium): 5 (Level 5: the growth inhibition rate is greater than 85%)
Activity level (growth inhibition rate) Monochoria Vaginalis (Monochoria vaginalis): 5 (Level 5: the growth inhibition rate is greater than 85%)

CC(Oc1nc(F)c(Cl)c(N)c1Cl)C(=O)OCCc1cnsc1 (stereo not shown) [Compound 162]
Activity level (growth inhibition rate) Abutilon theophrasti (Abutilon theophrasti): 5 (Level 5: the growth inhibition rate is greater than 85%)
Activity level (growth inhibition rate) Digitaria sanguinalis (Digitaria sanguinalis): 5 (Level 5: the growth inhibition rate is greater than 85%)
Activity level (growth inhibition rate) Echinochloa crusgalli (Echinochloa crusgalli): 5 (Level 5: the growth inhibition rate is greater than 85%)
Activity level (growth inhibition rate) Galium spurium (Galium spurium): 5 (Level 5: the growth inhibition rate is greater than 85%)
Activity level (growth inhibition rate) Monochoria Vaginalis (Monochoria vaginalis): 5 (Level 5: the growth inhibition rate is greater than 85%)

CC(Oc1nc(F)c(Cl)c(N)c1Cl)C(=O)OCc1nccs1 (stereo not shown) [Compound 163]
Activity level (growth inhibition rate) Abutilon theophrasti (Abutilon theophrasti): 5 (Level 5: the growth inhibition rate is greater than 85%)
Activity level (growth inhibition rate) Digitaria sanguinalis (Digitaria sanguinalis): 5 (Level 5: the growth inhibition rate is greater than 85%)
Activity level (growth inhibition rate) Echinochloa crusgalli (Echinochloa crusgalli): 5 (Level 5: the growth inhibition rate is greater than 85%)
Activity level (growth inhibition rate) Galium spurium (Galium spurium): 5 (Level 5: the growth inhibition rate is greater than 85%)
Activity level (growth inhibition rate) Monochoria Vaginalis (Monochoria vaginalis): 5 (Level 5: the growth inhibition rate is greater than 85%)

CC(Oc1nc(F)c(Cl)c(N)c1Cl)C(=O)OCc1nncs1 (stereo not shown) [Compound 164]
Activity level (growth inhibition rate) Abutilon theophrasti (Abutilon theophrasti): 5 (Level 5: the growth inhibition rate is greater than 85%)
Activity level (growth inhibition rate) Digitaria sanguinalis (Digitaria sanguinalis): 5 (Level 5: the growth inhibition rate is greater than 85%)
Activity level (growth inhibition rate) Echinochloa crusgalli (Echinochloa crusgalli): 5 (Level 5: the growth inhibition rate is greater than 85%)
Activity level (growth inhibition rate) Galium spurium (Galium spurium): 5 (Level 5: the growth inhibition rate is greater than 85%)
Activity level (growth inhibition rate) Monochoria Vaginalis (Monochoria vaginalis): 5 (Level 5: the growth inhibition rate is greater than 85%)
